# Results published in PubChem BioAssay AID2060889 (Molecular Pharmacology Branch, DTP, NCI, 2025).
# Tested on: LG0567-F671-PDC complex spheroids viability
# Assay: Anticancer human tumor LG0567-F671-PDC patient-derived lung adenocarcinoma cell line growth inhibition [RAS]
# Settings: for viability, T/C: stronger effect = lower value
# Outline: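 Agents were tested in combination matrices in half-log decrements from a top concentration at or near clinical Cmax (10 microM if undetermined). Targets were multi-cell spheroids of tumour lines plus HUVEC and MSC stromal cells.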
# 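Note: spheroids exposed to compound for seven days before readout.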
# 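Throughout, for IC50: luminescence signal used as a proxy for viable cells.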
smiles,measurement,setting,value
Nc1ccn(C2OC(CO)C(O)C2(F)F)c(=O)n1 (stereo unspecified) + C#Cc1c(F)ccc2cc(O)cc(-c3ncc4c(N5CC6CCC(C5)N6)nc(OCC56CCCN5CC(F)C6)nc4c3F)c12,IC50,"curve of first compound, second compound 0.0316 µM",> 1000 nM
same,IC50,"curve of first compound, second compound 0.1 µM",> 1000 nM
same,IC50,"curve of first compound, second compound 0.316 µM",< 3.16 nM
same,IC50,"curve of first compound, second compound 1 µM",< 3.16 nM
same,IC50,"curve of first compound, second compound 3.16 µM",< 3.16 nM
same,IC50,"curve of first compound, second compound 10 µM",< 3.16 nM
same,"viability, T/C","second compound 0.0316 µM, first compound 0.00316 µM",76.6%
same,"viability, T/C","second compound 0.0316 µM, first compound 0.01 µM",74.5%
same,"viability, T/C","second compound 0.0316 µM, first compound 0.0316 µM",60.8%
same,"viability, T/C","second compound 0.0316 µM, first compound 0.1 µM",59.8%
same,"viability, T/C","second compound 0.0316 µM, first compound 0.316 µM",63.2%
same,"viability, T/C","second compound 0.0316 µM, first compound 1 µM",59.5%
same,"viability, T/C","second compound 0.1 µM, first compound 0.00316 µM",70.4%
same,"viability, T/C","second compound 0.1 µM, first compound 0.01 µM",71.7%
same,"viability, T/C","second compound 0.1 µM, first compound 0.0316 µM",52.1%
same,"viability, T/C","second compound 0.1 µM, first compound 0.1 µM",61.5%
same,"viability, T/C","second compound 0.1 µM, first compound 0.316 µM",59.8%
same,"viability, T/C","second compound 0.1 µM, first compound 1 µM",59.2%
same,"viability, T/C","second compound 0.316 µM, first compound 0.00316 µM",46.8%
same,"viability, T/C","second compound 0.316 µM, first compound 0.01 µM",46.7%
same,"viability, T/C","second compound 0.316 µM, first compound 0.0316 µM",47.6%
same,"viability, T/C","second compound 0.316 µM, first compound 0.1 µM",46.5%
same,"viability, T/C","second compound 0.316 µM, first compound 0.316 µM",49.4%
same,"viability, T/C","second compound 0.316 µM, first compound 1 µM",44.8%
same,"viability, T/C","second compound 1 µM, first compound 0.00316 µM",26.7%
same,"viability, T/C","second compound 1 µM, first compound 0.01 µM",27.3%
same,"viability, T/C","second compound 1 µM, first compound 0.0316 µM",25.5%
same,"viability, T/C","second compound 1 µM, first compound 0.1 µM",26.9%
same,"viability, T/C","second compound 1 µM, first compound 0.316 µM",27.9%
same,"viability, T/C","second compound 1 µM, first compound 1 µM",27.5%
same,"viability, T/C","second compound 3.16 µM, first compound 0.00316 µM",16.1%
same,"viability, T/C","second compound 3.16 µM, first compound 0.01 µM",16.4%
same,"viability, T/C","second compound 3.16 µM, first compound 0.0316 µM",16.8%
same,"viability, T/C","second compound 3.16 µM, first compound 0.1 µM",16%
same,"viability, T/C","second compound 3.16 µM, first compound 0.316 µM",16.4%
same,"viability, T/C","second compound 3.16 µM, first compound 1 µM",14.8%
same,"viability, T/C","second compound 10 µM, first compound 0.00316 µM",8.86%
same,"viability, T/C","second compound 10 µM, first compound 0.01 µM",9.45%
same,"viability, T/C","second compound 10 µM, first compound 0.0316 µM",9%
same,"viability, T/C","second compound 10 µM, first compound 0.1 µM",8.04%
same,"viability, T/C","second compound 10 µM, first compound 0.316 µM",8.48%
same,"viability, T/C","second compound 10 µM, first compound 1 µM",9.14%
NC1c2ccccc2OC12CCN(c1cnc3c(N4CCCc5ncccc54)n[nH]c3n1)CC2 (stereo unspecified),"viability, T/C",compound 0.0316 µM,37.3% [middle of 4 runs]
same,"viability, T/C",compound 0.1 µM,26.9% [middle of 4 runs]
same,"viability, T/C",compound 0.316 µM,23.4% [middle of 4 runs]
same,"viability, T/C",compound 1 µM,23% [middle of 4 runs]
same,"viability, T/C",compound 3.16 µM,21.2% [middle of 4 runs]
same,"viability, T/C",compound 10 µM,20.4% [middle of 4 runs]
same,IC50,curve of compound,< 31.6 nM
Cc1nc(N2CCC3(CC2)COC(C)C3N)c(CO)nc1Sc1ccnc(N)c1Cl (stereo unspecified),"viability, T/C",compound 0.0316 µM,72.2% [middle of 4 runs]
same,"viability, T/C",compound 0.1 µM,48.2% [middle of 4 runs]
same,"viability, T/C",compound 0.316 µM,36.3% [middle of 4 runs]
same,"viability, T/C",compound 1 µM,28.1% [middle of 4 runs]
same,"viability, T/C",compound 3.16 µM,21.7% [middle of 4 runs]
same,"viability, T/C",compound 10 µM,19.9% [middle of 4 runs]
same,IC50,curve of compound,93.7 nM [middle of 4 runs]
